These are literature values, as cited in patent publication US20240252431A1, “PULMONARY BIGUANIDE FORMULATIONS AND DELIVERY DEVICES” (Onconox Inc., priority 2021, published 2024).

The subject of data set [1] is radiation induced pneumonitis. The conditions noted are these: in vivo.
For data set [2], the system named is lung fibrosis elicited by bleomycin. The following applies: mouse bleomycin model; treatment starting three weeks after lung injury, continuing five weeks.

For the compound `CN(C)C(=N)N=C(N)N` [Metformin, metformin], in data set [1], the “effect on radiation induced pneumonitis” value is given as “protect against radiation induced pneumonitis”. Also, in data set [2], the “effect on established lung fibrosis” value was “reverse established lung fibrosis”.
